In patent publication US20250215029A1 (Recludix Pharma, Inc., priority 2022, published 2025):
Where two headings read alike, the source gives them in different places.

What was measured:
[1] = target: T1, Recombinant STAT6 protein (STAT6 (W123-T658)) (Homo sapiens, UniProt P42226); test: STAT6 Fluorescence Polarization (FP) Assay; assay type: binding; conditions: 45-minute incubation
T1 construct: Recombinant STAT6 protein (STAT6 (W123-T658))
T1 sequence (P42226 123-658): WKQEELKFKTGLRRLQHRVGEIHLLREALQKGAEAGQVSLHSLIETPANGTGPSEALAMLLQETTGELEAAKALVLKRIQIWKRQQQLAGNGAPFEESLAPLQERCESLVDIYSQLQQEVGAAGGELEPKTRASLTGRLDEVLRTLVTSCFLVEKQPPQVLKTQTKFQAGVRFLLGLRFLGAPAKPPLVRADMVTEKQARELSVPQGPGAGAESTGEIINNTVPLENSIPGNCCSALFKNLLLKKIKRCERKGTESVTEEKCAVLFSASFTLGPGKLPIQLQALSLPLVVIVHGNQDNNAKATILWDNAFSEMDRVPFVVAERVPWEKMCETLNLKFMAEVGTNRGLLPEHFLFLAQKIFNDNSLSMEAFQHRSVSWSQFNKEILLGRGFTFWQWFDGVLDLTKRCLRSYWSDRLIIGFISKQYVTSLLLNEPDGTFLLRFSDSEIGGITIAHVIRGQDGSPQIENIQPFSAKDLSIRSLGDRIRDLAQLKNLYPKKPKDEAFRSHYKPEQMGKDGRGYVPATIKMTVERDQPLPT
Method in brief: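 Fluorescence polarization (mP) read-out: 250 nM STAT6 (W123-T658) plus 2 nM 5-FAM phosphotyrosine peptide, 45 min, room temperature, 1% DMSO. IC50 by nonlinear fit of mP against log compound concentration.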

[2] = target: T2, Recombinant STAT3 protein (STAT3 (G127-I722)) (Homo sapiens, UniProt P40763); test: STAT3 Fluorescence Polarization (FP) Assay; assay type: binding; conditions: probe 5-FAM-GpYLPQTV-NH2 2 nM, 45-minute incubation
T2 construct: Recombinant STAT3 protein (STAT3 (G127-I722))
T2 sequence (P40763 127-722): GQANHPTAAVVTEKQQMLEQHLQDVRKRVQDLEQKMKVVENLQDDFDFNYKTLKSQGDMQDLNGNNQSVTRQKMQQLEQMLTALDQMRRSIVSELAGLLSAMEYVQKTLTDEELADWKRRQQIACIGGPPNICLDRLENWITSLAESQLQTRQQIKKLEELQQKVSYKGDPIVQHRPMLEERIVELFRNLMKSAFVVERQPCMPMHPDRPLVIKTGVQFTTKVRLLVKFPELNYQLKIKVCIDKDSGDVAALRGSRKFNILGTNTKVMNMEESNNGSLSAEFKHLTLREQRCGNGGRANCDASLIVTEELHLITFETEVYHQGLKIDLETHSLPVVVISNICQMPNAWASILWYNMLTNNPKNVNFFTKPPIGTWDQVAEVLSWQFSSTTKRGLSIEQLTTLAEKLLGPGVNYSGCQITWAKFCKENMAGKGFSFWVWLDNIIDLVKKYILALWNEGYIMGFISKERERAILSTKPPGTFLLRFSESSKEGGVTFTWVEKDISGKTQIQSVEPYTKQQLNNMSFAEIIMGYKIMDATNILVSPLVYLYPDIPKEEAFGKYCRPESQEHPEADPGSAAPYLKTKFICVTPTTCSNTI
Method in brief: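 In this competition FP format, STAT3 residues G127-I722 (25 nM) and 2 nM 5-FAM-GpYLPQTV-NH2 met test compounds for 45 min at room temperature. IC50 values result from fitting mP signal against log concentration by nonlinear regression.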

[3] = STAT6 (W123-T658) 250 nM, probe 5-FAM-Ap[…]-NH2 2 nM, read-out: STAT6 (FP assay IC50 class)
[4] = STAT3 (G127-I722) 25 nM, read-out: STAT3 (FP assay IC50 class)

Row | IC50 [1, 3] [µM] | IC50 [2, 4] [µM] | IC50 ([1]; STAT6 (W123-T658) 250 nM, probe 5-FAM-ApYKPFQDLI-NH2 2 nM, read-out: STAT6 (FP assay IC50 class)) [µM] | IC50 ([1]; STAT6 250 nM, probe 5-FAM-Ap[…]-NH2 2 nM, read-out: STAT6 (FP assay IC50)) [µM] | IC50 ([2]; STAT3 25 nM, read-out: STAT3 (FP assay IC50)) [µM] | SMILES
1 | 3 to 30 | 0.1 to 1 |  |  |  | CN(C)c1cc(C2CN(C(=O)[C@@H]3CC[C@@H]4CCC[C@H](NC(=O)c5cc6cc([C@@H](F)P(=O)(O)O)ccc6s5)C(=O)N43)C2)ccn1 (single isomer, unassigned) [Compound 701]
2 | 3 to 30 | 0.1 to 1 |  |  |  | N#Cc1cccc(C2CN(C(=O)[C@@H]3CC[C@@H]4CCC[C@H](NC(=O)c5cc6cc(CP(=O)(O)O)ccc6s5)C(=O)N43)C2)n1 [Compound 653, ((2-(((3S,6S,9aS)-3-(3-(6-cyanopyridin-2-yl)azetidine-1-carbonyl)-5-oxooctahydro-1H-pyrrolo[1,2-a]azepin-6-yl)carbamoyl)benzo [b]thiophen-5-yl)methyl) phosphonic acid]
3 | 3 to 30 | 0.1 to 1 |  |  |  | Cc1cccnc1N1CC[C@@H](NC(=O)[C@@H]2CC[C@@H]3CCCC[C@H](NC(=O)c4cc5cc(C(F)P(=O)(O)O)ccc5s4)C(=O)N32)C1 (stereo partly drawn) [Compound 534, (fluoro(2-(((3S,6S,10aS)-3-(((R)-1-(3-methylpyridin-2-yl)pyrrolidin-3-yl)carbamoyl)-5-oxodecahydropyrrolo[1,2-a]azocin-6-yl)carbamoyl)benzo[b]thiophen-5-yl)methyl)phosphonic acid]
4 | 3 to 30 | 1 to 10 |  |  |  | Cc1c(C#N)cncc1C1CN(C(=O)[C@@H]2CC[C@@H]3CCC[C@H](NC(=O)c4cc5cc(CP(=O)(O)O)ccc5s4)C(=O)N32)C1 [Compound 510, ((2-(((3S,6S,9aS)-3-(3-(5-cyano-4-methylpyridin-3-yl)azetidine-1-carbonyl)-5-oxooctahydro-1H-pyrrolo[1,2-a]azepin-6-yl)carbamoyl)benzo[b]thiophen-5-yl)methyl)phosphonic acid]
5 | 3 to 30 | 1 to 10 |  |  |  | O=C(N[C@H]1CCC[C@H]2CC[C@@H](C(=O)N3CC(c4cc5cccnc5cc4F)C3)N2C1=O)c1cc2cc(C(F)P(=O)(O)O)ccc2s1 (stereo partly drawn) [Compound 560, (fluoro(2-(((3S,6S,9aS)-3-(3-(7-fluoroquinolin-6-yl)azetidine-1-carbonyl)-5-oxooctahydro-1H-pyrrolo[1,2-a]azepin-6-yl)carbamoyl)benzo[b]thiophen-5-yl)methyl)phosphonic acid]
6 | 0.3 to 3 | < 0.1 |  |  |  | C[C@@H]1C[C@H]2CC[C@@H](C(=O)N3CC(c4cnccc4F)C3)N2C(=O)[C@@H](NC(=O)c2cc3cc(C(F)P(=O)(O)O)ccc3s2)C1 (stereo partly drawn) [Compound 209, (fluoro(2-(((3S,6S,8S,9aR)-3-(3-(4-fluoropyridin-3-yl)azetidine-1-carbonyl)-8-methyl-5-oxooctahydro-1H-pyrrolo[1,2-a]azepin-6-yl)carbamoyl)benzo[b]thiophen-5-yl)methyl)phosphonic acid]
7 |  | 1 to 10 | ≤ 0.3 |  |  | N#C[C@@H]1CN(C(=O)[C@@H]2CC[C@@H]3CCCC[C@H](NC(=O)c4cc5cc(C(F)P(=O)(O)O)ccc5s4)C(=O)N32)C[C@H]1c1ccccc1 (single isomer, unassigned) [Compound 225]
8 | 3 to 30 | 0.1 to 1 |  |  |  | Cn1ccc(=O)c(C2CN(C(=O)[C@@H]3CC[C@@H]4CCC[C@H](NC(=O)c5cc6cc(C(F)P(=O)(O)O)ccc6s5)C(=O)N43)C2)c1 (stereo partly drawn) [Compound 617, (fluoro(2-(((3S,6S,9aS)-3-(3-(1-methyl-4-oxo-1,4-dihydropyridin-3-yl)azetidine-1-carbonyl)-5-oxooctahydro-1H-pyrrolo[1,2-a]azepin-6-yl)carbamoyl)benzo [b]thiophen-5-yl)methyl) phosphonic acid]
9 | 0.3 to 3 | < 0.1 |  |  |  | O=C(N[C@H]1CCCC[C@H]2CC[C@@H](C(=O)N3CC(Oc4cccnc4)C3)N2C1=O)c1cc2cc(C(F)(F)P(=O)(O)O)ccc2s1 [Compound 724, (difluoro(2-(((3S,6S,10aS)-5-oxo-3-(3-(pyridin-3-yloxy)azetidine-1-carbonyl)decahydropyrrolo[1,2-a]azocin-6-yl)carbamoyl)benzo [b]thiophen-5-yl)methyl) phosphonic acid]
10 | 3 to 30 | 1 to 10 |  |  |  | CO[C@H]1CC[C@@H](NC(=O)[C@@H]2CC[C@@H]3CCC[C@H](NC(=O)c4cc5cc(C(F)P(=O)(O)O)ccc5s4)C(=O)N32)C1 (stereo partly drawn) [Compound 535, (fluoro(2-(((3S,6S,9aS)-3-(((1R,3S)-3-methoxycyclopentyl)carbamoyl)-5-oxooctahydro-1H-pyrrolo[1,2-a]azepin-6-yl)carbamoyl)benzo[b]thiophen-5-yl)methyl)phosphonic acid]
11 | 0.3 to 3 | < 0.1 |  |  |  | COC1CN(c2ccncc2C2CN(C(=O)[C@@H]3CC[C@@H]4CCC[C@H](NC(=O)c5cc6cc([C@@H](F)P(=O)(O)O)ccc6s5)C(=O)N43)C2)C1 [Compound 859, ((S)-fluoro(2-(((3S,6S,9aS)-3-(3-(4-(3-methoxyazetidin-1-yl)pyridin-3-yl)azetidine-1-carbonyl)-5-oxooctahydro-1H-pyrrolo[1,2-a]azepin-6-yl)carbamoyl)benzo [b]thiophen-5-yl)methyl) phosphonic acid]
12 | 0.3 to 3 | 0.1 to 1 |  |  |  | Cn1cnnc1C1(O)CN(C(=O)[C@@H]2CC[C@@H]3CCC[C@H](NC(=O)c4cc5cc(C(F)(F)P(=O)(O)O)ccc5s4)C(=O)N32)C1 [Compound 807, (difluoro(2-(((3S,6S,9aS)-3-(3-hydroxy-3-(4-methyl-4H-1,2,4-triazol-3-yl)azetidine-1-carbonyl)-5-oxooctahydro-1H-pyrrolo[1,2-a]azepin-6-yl)carbamoyl)benzo [b]thiophen-5-yl)methyl) phosphonic acid]
13 | 3 to 30 | < 0.1 |  |  |  | O=C(N[C@H]1CCC[C@H]2CC[C@@H](C(=O)N3CC(c4ccnc(O)n4)C3)N2C1=O)c1cc2cc(C(F)P(=O)(O)O)ccc2s1 (stereo partly drawn) [Compound 927, (fluoro(2-(((3S,6S,9aS)-3-(3-(2-hydroxypyrimidin-4-yl)azetidine-1-carbonyl)-5-oxooctahydro-1H-pyrrolo[1,2-a]azepin-6-yl)carbamoyl)benzo [b]thiophen-5-yl)methyl) phosphonic acid]
14 |  |  |  | 0.3 to 3 | 0.1 to 1 | Cn1nccc1C=C1CN(C(=O)[C@@H]2CC[C@@H]3CCCC[C@H](NC(=O)c4cc5cc(C(F)(F)P(=O)(O)O)ccc5s4)C(=O)N32)C1 [Compound 69, (difluoro(2-(((3S,6S,10aS)-3-(3-((1-methyl-1H-pyrazol-5-yl)methylene)azetidine-1-carbonyl)-5-oxodecahydropyrrolo [1,2-a]azocin-6-yl)carbamoyl)benzo[b]thiophen-5-yl)methyl) phosphonic acid]
15 | 3 to 30 | 1 to 10 |  |  |  | O=C(N[C@H]1CCC[C@H]2CC[C@@H](C(=O)N3CC(c4ccc5ncccc5c4F)C3)N2C1=O)c1cc2cc(C(F)P(=O)(O)O)ccc2s1 (stereo partly drawn) [Compound 544, (fluoro(2-(((3S,6S,9aS)-3-(3-(5-fluoroquinolin-6-yl)azetidine-1-carbonyl)-5-oxooctahydro-1H-pyrrolo[1,2-a]azepin-6-yl)carbamoyl)benzo[b]thiophen-5-yl)methyl)phosphonic acid]
16 | 0.3 to 3 | 1 to 10 |  |  |  | C/C1=C/[C@H]2CC[C@@H](C(=O)N3CC(c4ccccc4)CC34CC4)N2C(=O)[C@@H](NC(=O)c2ccc3ccc(CP(=O)(O)O)cc3c2)CC1 (stereo partly drawn) [Compound 885, ((7-(((3S,6S,10aR,Z)-9-methyl-5-oxo-3-(6-phenyl-4-azaspiro[2.4]heptane-4-carbonyl)-1,2,3,5,6,7,8,10a-octahydropyrrolo[1,2-a]azocin-6-yl)carbamoyl)naphthalen-2-yl)methyl) phosphonic acid]
17 | 3 to 30 | < 0.1 |  |  |  | O=C(N[C@H]1CCC[C@H]2CC[C@@H](C(=O)N3CC(c4cncnc4N4CCC4)C3)N2C1=O)c1cc2cc([C@@H](F)P(=O)(O)O)ccc2s1 (single isomer, unassigned) [Compound 690]
18 | ≤ 0.3 | 1 to 10 |  |  |  | N#C[C@@H]1[C@@H](c2ccccc2)CN(C(=O)[C@@H]2CC[C@@H]3CCCC[C@H](NC(=O)c4ccc5ccc([C@@H](F)P(=O)(O)O)cc5c4)C(=O)N32)C12CC2 (single isomer, unassigned) [Compound 832]
